ChEMBL document CHEMBL1909046, “DrugMatrix in vitro pharmacology data”

Biological target: T1, Alpha-2A adrenergic receptor (Homo sapiens, UniProt P08913)
T1 sequence (P08913 whole entry): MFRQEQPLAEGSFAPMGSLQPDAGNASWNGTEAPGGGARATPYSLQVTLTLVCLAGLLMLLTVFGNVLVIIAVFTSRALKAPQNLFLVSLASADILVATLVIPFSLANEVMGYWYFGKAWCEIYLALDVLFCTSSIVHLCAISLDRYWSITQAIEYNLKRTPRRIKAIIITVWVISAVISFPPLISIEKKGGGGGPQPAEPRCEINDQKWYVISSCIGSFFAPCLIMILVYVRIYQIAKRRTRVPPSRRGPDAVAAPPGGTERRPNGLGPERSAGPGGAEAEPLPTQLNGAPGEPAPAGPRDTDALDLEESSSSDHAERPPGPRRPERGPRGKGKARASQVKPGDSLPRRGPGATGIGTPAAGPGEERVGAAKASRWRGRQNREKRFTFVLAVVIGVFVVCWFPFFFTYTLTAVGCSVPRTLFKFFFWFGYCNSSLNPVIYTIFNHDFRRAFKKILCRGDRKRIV
Assay type: cell membranes, Sf9, Membrane
Conditions: sf9
Further: in other assays of this panel Not Active means under 50% inhibition at 10 µM.

| Structure (SMILES) | IC50 |
| --- | --- |
| CC(C)NC[C@H](O)COc1cccc2ccccc12 [LEVOPROPRANOLOL] | Not Active |
| O=C(O)CCCCC1CCSS1 (stereo not drawn) [LIPOIC ACID, ALPHA] | Not Active |
| CN(C)C(=O)C(CCN1CCC(O)(c2ccc(Cl)cc2)CC1)(c1ccccc1)c1ccccc1 [LOPERAMIDE] | Not Active |
| Oc1ccc2c3c1O[C@H]1[C@@H](O)CC[C@@]4(O)[C@@H](C2)N(CC2CCC2)CC[C@]314 [NALBUPHINE] | Not Active |
| C[C@]12C=CC(=O)C=C1CC[C@@H]1[C@@H]2C(=O)C[C@@]2(C)[C@H]1CC[C@]2(O)C(=O)CO [PREDNISONE] | Not Active |
| COC(=O)[C@H]1[C@H]2C[C@@H]3c4[nH]c5cc(OC)ccc5c4CCN3C[C@H]2C[C@@H](OC(=O)c2cc(OC)c(OC)c(OC)c2)[C@@H]1OC [RESERPINE] | Not Active |
| O=C(O)c1ccccc1O [SALICYLIC ACID] | Not Active |

Biological target: Substance-P receptor (Homo sapiens, UniProt P25103)
Assay type: cell membranes, CHO, Membrane
Conditions: cho

Sequence of Substance-P receptor (P25103 whole entry): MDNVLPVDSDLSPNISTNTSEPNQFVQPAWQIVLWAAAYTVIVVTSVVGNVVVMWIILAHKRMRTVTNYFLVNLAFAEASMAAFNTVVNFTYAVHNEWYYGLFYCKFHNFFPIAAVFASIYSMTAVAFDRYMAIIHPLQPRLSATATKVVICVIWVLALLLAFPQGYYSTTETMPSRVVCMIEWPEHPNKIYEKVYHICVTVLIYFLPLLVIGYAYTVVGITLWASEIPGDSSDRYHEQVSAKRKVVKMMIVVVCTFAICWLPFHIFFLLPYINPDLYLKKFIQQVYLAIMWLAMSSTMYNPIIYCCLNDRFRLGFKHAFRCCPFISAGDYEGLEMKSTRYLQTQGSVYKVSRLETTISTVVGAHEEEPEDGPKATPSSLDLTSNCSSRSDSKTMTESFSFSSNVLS

| Structure (SMILES) | IC50 |
| --- | --- |
| CC(C)NC[C@H](O)COc1cccc2ccccc12 [LEVOPROPRANOLOL] | Not Active |
| O=C(O)CCCCC1CCSS1 (stereo not drawn) [LIPOIC ACID, ALPHA] | Not Active |
| CN(C)C(=O)C(CCN1CCC(O)(c2ccc(Cl)cc2)CC1)(c1ccccc1)c1ccccc1 [LOPERAMIDE] | Not Active |
| Oc1ccc2c3c1O[C@H]1[C@@H](O)CC[C@@]4(O)[C@@H](C2)N(CC2CCC2)CC[C@]314 [NALBUPHINE] | Not Active |
| C[C@]12C=CC(=O)C=C1CC[C@@H]1[C@@H]2C(=O)C[C@@]2(C)[C@H]1CC[C@]2(O)C(=O)CO [PREDNISONE] | Not Active |
| COC(=O)[C@H]1[C@H]2C[C@@H]3c4[nH]c5cc(OC)ccc5c4CCN3C[C@H]2C[C@@H](OC(=O)c2cc(OC)c(OC)c(OC)c2)[C@@H]1OC [RESERPINE] | Not Active |
| O=C(O)c1ccccc1O [SALICYLIC ACID] | Not Active |

Biological target: Melanocortin receptor 3 (Homo sapiens, UniProt P41968)
Assay type: cell membranes, Membrane
Conditions: hek293

Sequence of Melanocortin receptor 3 (P41968 whole entry): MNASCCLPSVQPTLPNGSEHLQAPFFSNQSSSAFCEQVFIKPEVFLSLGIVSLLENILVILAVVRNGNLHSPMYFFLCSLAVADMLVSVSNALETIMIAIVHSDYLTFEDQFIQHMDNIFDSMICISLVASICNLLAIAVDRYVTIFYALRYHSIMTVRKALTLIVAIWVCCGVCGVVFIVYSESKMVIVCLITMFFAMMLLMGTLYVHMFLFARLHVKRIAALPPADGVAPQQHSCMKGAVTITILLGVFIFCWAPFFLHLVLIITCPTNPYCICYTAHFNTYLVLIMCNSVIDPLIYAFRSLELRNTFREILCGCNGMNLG

| Structure (SMILES) | IC50 |
| --- | --- |
| CC(C)NC[C@H](O)COc1cccc2ccccc12 [LEVOPROPRANOLOL] | Not Active |
| O=C(O)CCCCC1CCSS1 (stereo not drawn) [LIPOIC ACID, ALPHA] | Not Active |
| CN(C)C(=O)C(CCN1CCC(O)(c2ccc(Cl)cc2)CC1)(c1ccccc1)c1ccccc1 [LOPERAMIDE] | Not Active |
| Oc1ccc2c3c1O[C@H]1[C@@H](O)CC[C@@]4(O)[C@@H](C2)N(CC2CCC2)CC[C@]314 [NALBUPHINE] | Not Active |
| C[C@]12C=CC(=O)C=C1CC[C@@H]1[C@@H]2C(=O)C[C@@]2(C)[C@H]1CC[C@]2(O)C(=O)CO [PREDNISONE] | Not Active |
| COC(=O)[C@H]1[C@H]2C[C@@H]3c4[nH]c5cc(OC)ccc5c4CCN3C[C@H]2C[C@@H](OC(=O)c2cc(OC)c(OC)c(OC)c2)[C@@H]1OC [RESERPINE] | Not Active |
| O=C(O)c1ccccc1O [SALICYLIC ACID] | Not Active |

Biological target: Platelet-activating factor receptor (Homo sapiens, UniProt P25105)
Assay type: tissue-based
Conditions: not given

Sequence of Platelet-activating factor receptor (P25105 whole entry): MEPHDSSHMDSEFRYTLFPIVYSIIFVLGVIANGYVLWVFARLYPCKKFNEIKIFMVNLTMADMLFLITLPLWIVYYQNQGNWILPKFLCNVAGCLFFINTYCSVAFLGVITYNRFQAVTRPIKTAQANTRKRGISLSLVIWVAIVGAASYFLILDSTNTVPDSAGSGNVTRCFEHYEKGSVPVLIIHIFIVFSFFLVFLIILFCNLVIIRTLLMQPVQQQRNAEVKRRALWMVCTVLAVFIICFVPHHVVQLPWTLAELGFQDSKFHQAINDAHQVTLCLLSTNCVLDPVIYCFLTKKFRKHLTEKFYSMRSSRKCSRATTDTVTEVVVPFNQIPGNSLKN

| Structure (SMILES) | IC50 |
| --- | --- |
| CC(C)NC[C@H](O)COc1cccc2ccccc12 [LEVOPROPRANOLOL] | Not Active |
| O=C(O)CCCCC1CCSS1 (stereo not drawn) [LIPOIC ACID, ALPHA] | Not Active |
| CN(C)C(=O)C(CCN1CCC(O)(c2ccc(Cl)cc2)CC1)(c1ccccc1)c1ccccc1 [LOPERAMIDE] | Not Active |
| Oc1ccc2c3c1O[C@H]1[C@@H](O)CC[C@@]4(O)[C@@H](C2)N(CC2CCC2)CC[C@]314 [NALBUPHINE] | Not Active |
| C[C@]12C=CC(=O)C=C1CC[C@@H]1[C@@H]2C(=O)C[C@@]2(C)[C@H]1CC[C@]2(O)C(=O)CO [PREDNISONE] | Not Active |
| COC(=O)[C@H]1[C@H]2C[C@@H]3c4[nH]c5cc(OC)ccc5c4CCN3C[C@H]2C[C@@H](OC(=O)c2cc(OC)c(OC)c(OC)c2)[C@@H]1OC [RESERPINE] | Not Active |
| O=C(O)c1ccccc1O [SALICYLIC ACID] | Not Active |

Biological target: Matrix metalloproteinase-9 (Homo sapiens, UniProt P14780);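 further: inhibition of isolated MMP-9 enzyme activity toward a synthetic peptide substrate, from the DrugMatrix protease screening panel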
Assay type: cell-based
Conditions: not given

Sequence of Matrix metalloproteinase-9 (P14780 whole entry): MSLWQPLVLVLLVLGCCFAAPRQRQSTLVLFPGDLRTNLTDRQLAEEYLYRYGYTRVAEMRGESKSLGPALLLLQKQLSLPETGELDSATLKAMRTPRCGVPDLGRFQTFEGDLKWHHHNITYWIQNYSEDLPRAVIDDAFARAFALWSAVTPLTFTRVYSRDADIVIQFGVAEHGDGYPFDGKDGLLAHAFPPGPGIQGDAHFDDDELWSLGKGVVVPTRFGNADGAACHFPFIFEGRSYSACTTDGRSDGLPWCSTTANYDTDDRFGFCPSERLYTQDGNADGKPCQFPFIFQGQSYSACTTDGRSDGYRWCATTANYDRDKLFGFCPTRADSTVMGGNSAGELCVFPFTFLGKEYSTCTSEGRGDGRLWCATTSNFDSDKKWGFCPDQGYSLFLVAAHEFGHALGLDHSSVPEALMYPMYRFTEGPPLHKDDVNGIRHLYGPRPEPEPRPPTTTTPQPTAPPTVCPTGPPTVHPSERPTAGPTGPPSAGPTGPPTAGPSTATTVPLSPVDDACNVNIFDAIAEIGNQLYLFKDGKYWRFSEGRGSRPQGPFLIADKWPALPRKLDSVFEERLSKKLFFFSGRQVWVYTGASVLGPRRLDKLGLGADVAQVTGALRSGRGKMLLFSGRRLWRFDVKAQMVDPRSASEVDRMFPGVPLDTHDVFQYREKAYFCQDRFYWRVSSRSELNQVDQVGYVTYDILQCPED

| Structure (SMILES) | IC50 |
| --- | --- |
| CC(C)NC[C@H](O)COc1cccc2ccccc12 [LEVOPROPRANOLOL] | Not Active |
| O=C(O)CCCCC1CCSS1 (stereo not drawn) [LIPOIC ACID, ALPHA] | Not Active |
| CN(C)C(=O)C(CCN1CCC(O)(c2ccc(Cl)cc2)CC1)(c1ccccc1)c1ccccc1 [LOPERAMIDE] | Not Active |
| Oc1ccc2c3c1O[C@H]1[C@@H](O)CC[C@@]4(O)[C@@H](C2)N(CC2CCC2)CC[C@]314 [NALBUPHINE] | Not Active |
| C[C@]12C=CC(=O)C=C1CC[C@@H]1[C@@H]2C(=O)C[C@@]2(C)[C@H]1CC[C@]2(O)C(=O)CO [PREDNISONE] | Not Active |
| COC(=O)[C@H]1[C@H]2C[C@@H]3c4[nH]c5cc(OC)ccc5c4CCN3C[C@H]2C[C@@H](OC(=O)c2cc(OC)c(OC)c(OC)c2)[C@@H]1OC [RESERPINE] | Not Active |
| O=C(O)c1ccccc1O [SALICYLIC ACID] | Not Active |

Biological target: T2, Adenosine receptor A1 (Homo sapiens, UniProt P30542);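 further: radioligand binding assay at the adenosine A1 receptor, with DPCPX serving as the labelled ligand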
T2 sequence (P30542 whole entry): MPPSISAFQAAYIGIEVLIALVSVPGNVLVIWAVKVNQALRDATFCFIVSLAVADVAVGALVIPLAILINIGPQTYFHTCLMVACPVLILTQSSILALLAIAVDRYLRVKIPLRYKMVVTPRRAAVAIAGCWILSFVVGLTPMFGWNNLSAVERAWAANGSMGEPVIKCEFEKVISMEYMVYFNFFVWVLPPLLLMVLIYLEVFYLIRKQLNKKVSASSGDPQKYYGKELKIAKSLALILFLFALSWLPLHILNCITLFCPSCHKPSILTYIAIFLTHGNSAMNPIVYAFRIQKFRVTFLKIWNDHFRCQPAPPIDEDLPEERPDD
Assay type: cell membranes, CHO, Membrane
Conditions: cho

| Structure (SMILES) | IC50 |
| --- | --- |
| CC(C)NC[C@H](O)COc1cccc2ccccc12 [LEVOPROPRANOLOL] | Not Active |
| O=C(O)CCCCC1CCSS1 (stereo not drawn) [LIPOIC ACID, ALPHA] | Not Active |
| CN(C)C(=O)C(CCN1CCC(O)(c2ccc(Cl)cc2)CC1)(c1ccccc1)c1ccccc1 [LOPERAMIDE] | Not Active |
| Oc1ccc2c3c1O[C@H]1[C@@H](O)CC[C@@]4(O)[C@@H](C2)N(CC2CCC2)CC[C@]314 [NALBUPHINE] | Not Active |
| C[C@]12C=CC(=O)C=C1CC[C@@H]1[C@@H]2C(=O)C[C@@]2(C)[C@H]1CC[C@]2(O)C(=O)CO [PREDNISONE] | Not Active |
| COC(=O)[C@H]1[C@H]2C[C@@H]3c4[nH]c5cc(OC)ccc5c4CCN3C[C@H]2C[C@@H](OC(=O)c2cc(OC)c(OC)c(OC)c2)[C@@H]1OC [RESERPINE] | Not Active |
| O=C(O)c1ccccc1O [SALICYLIC ACID] | Not Active |
